Active and inactive are the calls of the source. Rule as the data show it, for most assays here: actives have a measured Kd and inactives only a lower limit.
Columns and labels:
[1] = target: Chromodomain-helicase-DNA-binding protein 4 (Homo sapiens, UniProt Q14839)
[2] = target: T1, ATP-dependent RNA helicase DDX1 (Homo sapiens, UniProt Q92499)
T1 sequence (Q92499 whole entry): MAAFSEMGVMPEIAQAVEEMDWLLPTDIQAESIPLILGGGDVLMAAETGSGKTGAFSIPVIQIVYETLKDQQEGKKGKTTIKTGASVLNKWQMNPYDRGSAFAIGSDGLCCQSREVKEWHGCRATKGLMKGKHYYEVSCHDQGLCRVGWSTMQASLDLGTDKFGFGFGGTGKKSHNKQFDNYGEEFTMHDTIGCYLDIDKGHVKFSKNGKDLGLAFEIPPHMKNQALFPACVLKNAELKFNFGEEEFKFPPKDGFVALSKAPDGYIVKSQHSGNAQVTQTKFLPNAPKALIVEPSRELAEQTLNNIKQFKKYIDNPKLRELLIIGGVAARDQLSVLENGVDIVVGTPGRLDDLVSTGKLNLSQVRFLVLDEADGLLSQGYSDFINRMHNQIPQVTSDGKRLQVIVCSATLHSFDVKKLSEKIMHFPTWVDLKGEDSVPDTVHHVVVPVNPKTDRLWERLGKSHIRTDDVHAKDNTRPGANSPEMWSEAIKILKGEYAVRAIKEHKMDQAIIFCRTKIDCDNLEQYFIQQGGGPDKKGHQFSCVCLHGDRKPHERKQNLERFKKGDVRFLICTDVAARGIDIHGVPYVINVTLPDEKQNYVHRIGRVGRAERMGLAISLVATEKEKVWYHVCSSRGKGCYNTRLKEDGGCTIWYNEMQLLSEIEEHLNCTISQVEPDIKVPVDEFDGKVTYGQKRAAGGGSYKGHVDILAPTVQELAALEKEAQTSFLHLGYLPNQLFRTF

[3] = target: Tyrosine-protein kinase Lck (Homo sapiens, UniProt P06239)
[4] = target: T2, Membrane-associated tyrosine- and threonine-specific cdc2-inhibitory kinase (Homo sapiens, UniProt Q99640)
T2 sequence (Q99640 whole entry): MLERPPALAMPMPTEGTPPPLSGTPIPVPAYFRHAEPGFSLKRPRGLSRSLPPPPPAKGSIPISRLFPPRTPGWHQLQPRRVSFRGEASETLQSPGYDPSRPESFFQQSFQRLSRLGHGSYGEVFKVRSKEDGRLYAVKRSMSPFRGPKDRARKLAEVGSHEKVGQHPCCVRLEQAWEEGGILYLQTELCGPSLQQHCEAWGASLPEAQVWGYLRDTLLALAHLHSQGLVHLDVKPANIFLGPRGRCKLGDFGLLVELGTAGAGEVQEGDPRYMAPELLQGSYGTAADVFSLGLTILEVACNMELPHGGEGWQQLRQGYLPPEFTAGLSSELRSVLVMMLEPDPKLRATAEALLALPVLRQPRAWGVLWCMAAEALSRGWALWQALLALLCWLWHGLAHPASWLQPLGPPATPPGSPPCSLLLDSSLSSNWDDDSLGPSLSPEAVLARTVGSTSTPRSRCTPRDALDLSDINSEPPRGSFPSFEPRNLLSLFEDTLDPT

[5] = target: Rho-associated protein kinase 2 (Homo sapiens, UniProt O75116)
[6] = target: T3, Serine/threonine-protein kinase TBK1 (Homo sapiens, UniProt Q9UHD2)
T3 sequence (Q9UHD2 whole entry): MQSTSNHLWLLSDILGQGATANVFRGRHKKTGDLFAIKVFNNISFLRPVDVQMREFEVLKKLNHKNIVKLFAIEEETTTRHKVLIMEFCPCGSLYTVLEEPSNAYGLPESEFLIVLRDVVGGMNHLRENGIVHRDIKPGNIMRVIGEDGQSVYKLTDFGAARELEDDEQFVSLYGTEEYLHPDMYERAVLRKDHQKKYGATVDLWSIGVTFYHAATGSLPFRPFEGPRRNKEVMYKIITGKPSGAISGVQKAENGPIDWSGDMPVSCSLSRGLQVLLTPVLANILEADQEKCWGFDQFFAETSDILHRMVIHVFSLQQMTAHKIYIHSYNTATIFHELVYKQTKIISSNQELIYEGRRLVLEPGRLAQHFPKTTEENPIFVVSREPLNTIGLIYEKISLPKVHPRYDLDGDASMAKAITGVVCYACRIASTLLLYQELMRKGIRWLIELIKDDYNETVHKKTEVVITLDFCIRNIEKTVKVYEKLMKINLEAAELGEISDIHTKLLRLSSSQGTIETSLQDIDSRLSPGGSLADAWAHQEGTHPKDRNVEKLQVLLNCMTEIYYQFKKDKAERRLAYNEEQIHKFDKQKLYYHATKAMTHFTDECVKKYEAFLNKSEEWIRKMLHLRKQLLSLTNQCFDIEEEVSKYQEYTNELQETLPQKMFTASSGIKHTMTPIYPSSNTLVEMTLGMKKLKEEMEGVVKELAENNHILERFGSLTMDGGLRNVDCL

[7] = target: T4, Serine/threonine-protein kinase ULK3 (Homo sapiens, UniProt Q6PHR2)
T4 sequence (Q6PHR2 whole entry): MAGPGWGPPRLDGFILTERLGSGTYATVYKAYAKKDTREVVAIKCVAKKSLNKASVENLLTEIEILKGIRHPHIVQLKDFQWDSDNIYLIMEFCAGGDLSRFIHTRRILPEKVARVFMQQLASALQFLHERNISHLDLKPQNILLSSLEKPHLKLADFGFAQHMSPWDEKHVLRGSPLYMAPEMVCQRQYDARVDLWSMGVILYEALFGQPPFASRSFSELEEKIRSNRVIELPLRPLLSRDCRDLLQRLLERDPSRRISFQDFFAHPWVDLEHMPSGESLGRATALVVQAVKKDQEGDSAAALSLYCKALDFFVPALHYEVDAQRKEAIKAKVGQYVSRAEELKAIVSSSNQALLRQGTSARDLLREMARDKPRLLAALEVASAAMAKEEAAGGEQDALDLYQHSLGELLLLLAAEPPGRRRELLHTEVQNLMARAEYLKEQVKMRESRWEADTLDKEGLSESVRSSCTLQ
Also: in the data inactive means no Kd found up to 30 µM.

Sequence of Rho-associated protein kinase 2 (O75116 whole entry): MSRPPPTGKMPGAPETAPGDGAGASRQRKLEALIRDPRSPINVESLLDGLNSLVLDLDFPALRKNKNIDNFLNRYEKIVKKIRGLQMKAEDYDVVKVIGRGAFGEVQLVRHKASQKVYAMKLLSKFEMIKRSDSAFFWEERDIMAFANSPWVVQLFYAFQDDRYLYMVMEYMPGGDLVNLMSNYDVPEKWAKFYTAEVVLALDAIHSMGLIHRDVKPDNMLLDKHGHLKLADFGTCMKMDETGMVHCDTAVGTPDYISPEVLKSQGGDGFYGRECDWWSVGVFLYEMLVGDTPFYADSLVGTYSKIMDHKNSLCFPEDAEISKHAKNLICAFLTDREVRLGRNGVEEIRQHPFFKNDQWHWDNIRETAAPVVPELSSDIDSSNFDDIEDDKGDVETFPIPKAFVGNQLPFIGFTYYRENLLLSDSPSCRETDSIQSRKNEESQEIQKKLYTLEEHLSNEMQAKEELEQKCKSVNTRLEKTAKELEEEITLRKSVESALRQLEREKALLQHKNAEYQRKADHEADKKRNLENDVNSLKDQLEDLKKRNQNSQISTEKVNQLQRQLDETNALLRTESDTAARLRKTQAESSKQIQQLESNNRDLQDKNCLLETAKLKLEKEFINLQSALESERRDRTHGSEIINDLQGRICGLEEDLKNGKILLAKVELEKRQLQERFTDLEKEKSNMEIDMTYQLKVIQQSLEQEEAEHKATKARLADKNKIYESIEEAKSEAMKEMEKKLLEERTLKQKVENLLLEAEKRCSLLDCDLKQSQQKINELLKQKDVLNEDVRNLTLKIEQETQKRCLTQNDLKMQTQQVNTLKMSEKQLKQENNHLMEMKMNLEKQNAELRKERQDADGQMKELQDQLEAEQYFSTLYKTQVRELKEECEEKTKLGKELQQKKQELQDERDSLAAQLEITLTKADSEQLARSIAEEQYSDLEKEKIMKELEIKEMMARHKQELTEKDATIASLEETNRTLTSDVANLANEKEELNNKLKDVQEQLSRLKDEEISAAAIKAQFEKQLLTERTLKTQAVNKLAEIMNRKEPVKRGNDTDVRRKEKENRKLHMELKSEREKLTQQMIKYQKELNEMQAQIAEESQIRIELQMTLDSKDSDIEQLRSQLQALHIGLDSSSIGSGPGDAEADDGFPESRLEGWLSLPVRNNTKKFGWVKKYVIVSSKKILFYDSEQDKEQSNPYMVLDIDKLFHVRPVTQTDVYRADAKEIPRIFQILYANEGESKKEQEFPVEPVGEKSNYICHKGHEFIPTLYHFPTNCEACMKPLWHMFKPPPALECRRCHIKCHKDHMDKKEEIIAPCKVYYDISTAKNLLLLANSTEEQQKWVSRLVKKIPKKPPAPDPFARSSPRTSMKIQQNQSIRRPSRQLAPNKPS
Sequence of Tyrosine-protein kinase Lck (P06239 whole entry): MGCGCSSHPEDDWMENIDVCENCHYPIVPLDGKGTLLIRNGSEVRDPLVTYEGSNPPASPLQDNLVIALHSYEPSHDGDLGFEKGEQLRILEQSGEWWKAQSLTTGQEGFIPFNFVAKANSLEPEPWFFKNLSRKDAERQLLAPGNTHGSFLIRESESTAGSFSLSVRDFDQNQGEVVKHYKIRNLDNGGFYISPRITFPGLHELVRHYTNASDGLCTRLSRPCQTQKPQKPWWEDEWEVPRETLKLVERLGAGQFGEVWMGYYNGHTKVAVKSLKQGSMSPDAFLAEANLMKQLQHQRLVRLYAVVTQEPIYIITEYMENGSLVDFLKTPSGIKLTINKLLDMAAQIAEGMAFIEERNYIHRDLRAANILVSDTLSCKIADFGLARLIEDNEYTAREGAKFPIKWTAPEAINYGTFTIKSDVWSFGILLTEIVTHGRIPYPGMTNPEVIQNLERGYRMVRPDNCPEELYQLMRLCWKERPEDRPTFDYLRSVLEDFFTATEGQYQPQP
Sequence of Chromodomain-helicase-DNA-binding protein 4 (Q14839 whole entry): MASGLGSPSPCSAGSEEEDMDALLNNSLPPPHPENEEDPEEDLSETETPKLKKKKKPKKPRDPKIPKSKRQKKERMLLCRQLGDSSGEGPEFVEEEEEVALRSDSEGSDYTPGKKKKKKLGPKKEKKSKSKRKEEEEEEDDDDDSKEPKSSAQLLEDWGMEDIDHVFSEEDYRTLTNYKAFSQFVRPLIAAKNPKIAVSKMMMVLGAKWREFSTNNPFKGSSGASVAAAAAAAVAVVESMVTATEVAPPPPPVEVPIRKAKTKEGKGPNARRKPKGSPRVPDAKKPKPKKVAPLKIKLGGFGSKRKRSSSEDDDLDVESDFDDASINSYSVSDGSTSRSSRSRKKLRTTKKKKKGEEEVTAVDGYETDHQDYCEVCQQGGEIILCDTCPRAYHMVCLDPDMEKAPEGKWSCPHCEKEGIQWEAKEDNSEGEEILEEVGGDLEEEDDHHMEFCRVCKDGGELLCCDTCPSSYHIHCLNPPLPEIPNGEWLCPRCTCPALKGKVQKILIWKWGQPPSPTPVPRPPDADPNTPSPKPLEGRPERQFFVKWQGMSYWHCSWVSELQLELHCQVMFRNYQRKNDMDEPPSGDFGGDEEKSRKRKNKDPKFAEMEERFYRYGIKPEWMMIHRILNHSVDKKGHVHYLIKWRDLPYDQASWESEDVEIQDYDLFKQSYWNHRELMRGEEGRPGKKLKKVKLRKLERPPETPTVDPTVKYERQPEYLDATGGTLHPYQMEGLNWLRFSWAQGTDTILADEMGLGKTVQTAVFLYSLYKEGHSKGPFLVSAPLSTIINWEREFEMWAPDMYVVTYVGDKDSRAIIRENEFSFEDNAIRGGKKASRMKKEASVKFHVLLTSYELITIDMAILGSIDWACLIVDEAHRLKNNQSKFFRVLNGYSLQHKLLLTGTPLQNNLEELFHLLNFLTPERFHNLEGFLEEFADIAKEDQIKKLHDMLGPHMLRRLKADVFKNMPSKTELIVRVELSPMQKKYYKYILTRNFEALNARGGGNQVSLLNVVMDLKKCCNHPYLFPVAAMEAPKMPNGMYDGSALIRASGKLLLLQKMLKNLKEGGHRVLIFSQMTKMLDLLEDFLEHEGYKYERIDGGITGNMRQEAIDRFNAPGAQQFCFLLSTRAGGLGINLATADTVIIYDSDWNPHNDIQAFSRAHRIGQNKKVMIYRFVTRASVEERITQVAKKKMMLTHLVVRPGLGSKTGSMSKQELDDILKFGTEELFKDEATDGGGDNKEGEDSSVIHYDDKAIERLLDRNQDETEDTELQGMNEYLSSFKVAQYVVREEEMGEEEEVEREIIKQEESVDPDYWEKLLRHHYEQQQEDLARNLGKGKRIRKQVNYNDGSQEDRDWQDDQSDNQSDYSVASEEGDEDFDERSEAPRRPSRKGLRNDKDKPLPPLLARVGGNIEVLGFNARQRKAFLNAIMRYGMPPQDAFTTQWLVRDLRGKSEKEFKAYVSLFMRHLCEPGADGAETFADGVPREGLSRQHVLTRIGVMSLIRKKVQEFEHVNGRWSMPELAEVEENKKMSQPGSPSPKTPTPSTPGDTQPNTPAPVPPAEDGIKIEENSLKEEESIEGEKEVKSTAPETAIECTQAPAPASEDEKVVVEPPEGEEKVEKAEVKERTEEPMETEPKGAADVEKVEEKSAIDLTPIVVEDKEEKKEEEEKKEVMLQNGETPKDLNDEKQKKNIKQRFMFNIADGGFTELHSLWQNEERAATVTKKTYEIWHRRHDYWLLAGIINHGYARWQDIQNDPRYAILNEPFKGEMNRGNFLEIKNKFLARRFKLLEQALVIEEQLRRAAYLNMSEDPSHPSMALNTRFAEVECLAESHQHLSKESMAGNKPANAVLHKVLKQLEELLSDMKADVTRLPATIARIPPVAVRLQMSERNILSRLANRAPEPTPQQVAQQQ

| Kd [1] | Kd [2] | Kd [3] | Kd [4] | Kd [5] | Kd [6] | Kd [7] | Compound |
| --- | --- | --- | --- | --- | --- | --- | --- |
| > 30 µM (inactive) | > 30 µM (inactive) | > 30 µM (inactive) | > 30 µM (inactive) | > 30 µM (inactive) | > 30 µM (inactive) | > 30 µM (inactive) | CC(=O)Nc1cccc(-n2c(=O)n(C3CC3)c(=O)c3c(Nc4ccc(I)cc4F)n(C)c(=O)c(C)c32)c1 [TRAMETINIB] |
| > 30 µM (inactive) | > 30 µM (inactive) | > 30 µM (inactive) | > 30 µM (inactive) | > 30 µM (inactive) | > 30 µM (inactive) | > 30 µM (inactive) | CO[C@H]1C[C@@H]2CC[C@@H](C)[C@@](O)(O2)C(=O)C(=O)N2CCCC[C@H]2C(=O)O[C@H]([C@H](C)C[C@@H]2CC[C@@H](OCCO)[C@H](OC)C2)CC(=O)[C@H](C)/C=C(\C)[C@@H](O)[C@@H](OC)C(=O)[C@H](C)C[C@H](C)/C=C/C=C/C=C/1C [EVEROLIMUS] |
| > 30 µM (inactive) | > 30 µM (inactive) | > 30 µM (inactive) | > 30 µM (inactive) | > 30 µM (inactive) | > 30 µM (inactive) | > 30 µM (inactive) | CN1N=C(N)c2cn([C@@H]3O[C@H](COP(=O)(O)O)[C@@H](O)[C@H]3O)c3ncnc1c23 [TRICIRIBINE PHOSPHATE] |
| > 30 µM (inactive) | > 30 µM (inactive) | > 30 µM (inactive) | > 30 µM (inactive) | > 30 µM (inactive) | > 30 µM (inactive) | > 30 µM (inactive) | O=c1sn(-c2cccc3ccccc23)c(=O)n1Cc1ccccc1 [TIDEGLUSIB] |
| > 30 µM (inactive) | > 30 µM (inactive) | > 30 µM (inactive) | > 30 µM (inactive) | > 30 µM (inactive) | > 30 µM (inactive) | > 30 µM (inactive) | CC(C)Nc1cc(-c2c[nH]c(C(=O)N[C@H](CO)c3cccc(Cl)c3)c2)c(Cl)cn1 [ULIXERTINIB] |
| > 30 µM (inactive) | > 30 µM (inactive) | > 30 µM (inactive) | > 30 µM (inactive) | > 30 µM (inactive) | > 30 µM (inactive) | > 30 µM (inactive) | Cn1cc(-c2ccc3nnc(C(F)(F)c4ccc5ncccc5c4)n3n2)cn1 [JNJ-38877605] |
| > 30 µM (inactive) | > 30 µM (inactive) | > 30 µM (inactive) | > 30 µM (inactive) | > 30 µM (inactive) | > 30 µM (inactive) | > 30 µM (inactive) | C[C@@H]1CN(Cc2ccc(F)cc2)[C@@H](C)CN1C(=O)c1cc2c(C(=O)C(=O)N(C)C)cn(C)c2cc1Cl [TALMAPIMOD] |
| > 30 µM (inactive) | > 30 µM (inactive) | 6.54 µM (active) | > 30 µM (inactive) | > 30 µM (inactive) | 49.6 µM (active) | > 30 µM (inactive) | C1=C/COCc2cc(ccc2OCCN2CCCC2)Nc2nccc(n2)-c2cccc(c2)COC/1 [PACRITINIB] |
| > 30 µM (inactive) | > 30 µM (inactive) | 1.27 µM (active) | > 30 µM (inactive) | > 30 µM (inactive) | > 30 µM (inactive) | > 30 µM (inactive) | COc1cc(N2CCC(N3CCN(C)CC3)CC2)ccc1Nc1ncnc(Nc2ccccc2S(=O)(=O)C(C)C)n1 [ASP-3026] |
| > 30 µM (inactive) | > 30 µM (inactive) | > 30 µM (inactive) | > 30 µM (inactive) | > 30 µM (inactive) | > 30 µM (inactive) | > 30 µM (inactive) | CNC(=O)CN1CCC(Oc2cc3c(Nc4cccc(Cl)c4F)ncnc3cc2OC)CC1 [SAPITINIB] |
| > 30 µM (inactive) | > 30 µM (inactive) | > 30 µM (inactive) | > 30 µM (inactive) | > 30 µM (inactive) | > 30 µM (inactive) | > 30 µM (inactive) | Cc1ccc(S(=O)(=O)Nc2nc3ccccc3nc2Nc2ccc3nsnc3c2)cc1 |
| > 30 µM (inactive) | > 30 µM (inactive) | > 30 µM (inactive) | > 30 µM (inactive) | > 30 µM (inactive) | > 30 µM (inactive) | > 30 µM (inactive) | COc1cc2nccc(Oc3ccc(NC(=O)NC4CC4)c(Cl)c3)c2cc1C(N)=O [LENVATINIB] |
| > 30 µM (inactive) | > 30 µM (inactive) | > 30 µM (inactive) | > 30 µM (inactive) | > 30 µM (inactive) | > 30 µM (inactive) | > 30 µM (inactive) | N[C@@H]1CCCN(c2c(/C=C3\SC(=O)NC3=O)cccc2-c2ccccc2)C1 |
| > 30 µM (inactive) | > 30 µM (inactive) | > 30 µM (inactive) | > 30 µM (inactive) | > 30 µM (inactive) | > 30 µM (inactive) | > 30 µM (inactive) | CNC(=O)c1cc(Oc2ccc(NC(=O)Nc3ccc(Cl)c(C(F)(F)F)c3)c(F)c2)ccn1 [REGORAFENIB] |
| > 30 µM (inactive) | > 30 µM (inactive) | 2.18 µM (active) | > 30 µM (inactive) | > 30 µM (inactive) | > 30 µM (inactive) | > 30 µM (inactive) | COc1cc2nccc(Oc3ccc(NC(=O)Nc4cc(C)on4)c(Cl)c3)c2cc1OC [TIVOZANIB] |

| Compound | Kd [1] | Kd [2] | Kd [3] | Kd [4] | Kd [5] | Kd [6] | Kd [7] |
| --- | --- | --- | --- | --- | --- | --- | --- |
| CN1CC[C@@H](c2c(O)cc(O)c3c(=O)cc(-c4ccccc4Cl)oc23)[C@@H]1CO | > 30 µM (inactive) | > 30 µM (inactive) | > 30 µM (inactive) | > 30 µM (inactive) | > 30 µM (inactive) | > 30 µM (inactive) | > 30 µM (inactive) |
| CN1CCC(COc2cnc(-c3cccc(Cn4nc(-c5cccc(C#N)c5)ccc4=O)c3)nc2)CC1 [TEPOTINIB] | > 30 µM (inactive) | > 30 µM (inactive) | > 30 µM (inactive) | > 30 µM (inactive) | > 30 µM (inactive) | > 30 µM (inactive) | > 30 µM (inactive) |
| O=C(c1ccc(F)c(F)c1Nc1ccc(I)cc1F)N1CC(O)([C@@H]2CCCCN2)C1 [COBIMETINIB] | > 30 µM (inactive) | > 30 µM (inactive) | > 30 µM (inactive) | > 30 µM (inactive) | > 30 µM (inactive) | > 30 µM (inactive) | > 30 µM (inactive) |

— ChEMBL document CHEMBL3991601, “The target landscape of clinical kinase drugs” (Science, 2017)
